Reference: PubChem BioAssay AID270 (DTP/NCI, 2004)
Where “and” joins values, the source holds several entries; their conditions need not be identical. Equal entries are not always repeated. Inconclusive results are not listed.

Test system: BDF1 mice, s.c. Lewis lung carcinoma, T/C %
Test: NCI In Vivo Anticancer Drug Screen. Data for tumor model Lewis Lung Carcinoma (subcutaneous) in B6D2F1 (BDF1) mice
Summary of the method: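 First, mice carry a transplantable tumor. Next, groups receive either compound or vehicle. Finally, survival or tumor dimensions in the dosed animals are divided by the corresponding control figure.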

COc1cc2c3c(c1)/C(=N\Nc1ccccc1)CCN3CCC2
T/C (endpoint: median survival time, dose: 0.78 mg/kg/injection, schedule: Q01DX009 (ip), vehicle: DMSO, higher = longer survival): 112 % of control
T/C (endpoint: median survival time, dose: 3.0 mg/kg/injection, schedule: Q01DX009 (ip), vehicle: DMSO, higher = longer survival): 124 % of control

NC(=S)N/N=C\c1nccc2c(N)cccc12
T/C (endpoint: median survival time, dose: 6.25 mg/kg/injection, schedule: Q01DX009 (ip), vehicle: saline with Tween-80, higher = longer survival): 107 % of control and 110 % of control
T/C (endpoint: median survival time, dose: 12.5 mg/kg/injection, schedule: Q01DX009 (ip), vehicle: saline with Tween-80, higher = longer survival): 94 % of control and 113 % of control
T/C (endpoint: median survival time, dose: 25.0 mg/kg/injection, schedule: Q01DX009 (ip), vehicle: saline with Tween-80, higher = longer survival): 112 % of control and 117 % of control
T/C (endpoint: median survival time, dose: 50.0 mg/kg/injection, schedule: Q01DX009 (ip), vehicle: saline with Tween-80, higher = longer survival): 105 % of control
T/C (endpoint: median survival time, dose: 75.0 mg/kg/injection, schedule: Q01DX009 (ip), vehicle: saline with Tween-80, higher = longer survival): 110 % of control and 124 % of control

COc1c(OC)c(OC)c(-c2cc(=O)c3c(OC)c(OC)c(OC)c(OC)c3o2)c(OC)c1OC
T/C (endpoint: mean tumor weight, dose: 50.0 mg/kg/injection, schedule: Q01DX011 (sc), vehicle: steriod suspending solution, higher = larger tumour): 97 % of control
T/C (endpoint: mean tumor weight, dose: 100.0 mg/kg/injection, schedule: Q01DX011 (sc), vehicle: steriod suspending solution, higher = larger tumour): 105 % of control
T/C (endpoint: mean tumor weight, dose: 200.0 mg/kg/injection, schedule: Q01DX011 (sc), vehicle: steriod suspending solution, higher = larger tumour): 97 % of control
T/C (endpoint: mean tumor weight, dose: 400.0 mg/kg/injection, schedule: Q01DX011 (sc), vehicle: steriod suspending solution, higher = larger tumour): 83 % of control

CS(=O)(=O)OCC#CCOS(C)(=O)=O
T/C (endpoint: mean tumor weight, dose: 16.0 mg/kg/injection, schedule: Q01DX011 (ip), vehicle: saline, higher = larger tumour): 91 % of control
T/C (endpoint: mean tumor weight, dose: 32.0 mg/kg/injection, schedule: Q01DX011 (ip), vehicle: saline, higher = larger tumour): 63 % of control

CCO/C=C1\SC(=S)N(c2cccc(OC)c2)C1=O
T/C (endpoint: median survival time, dose: 50.0 mg/kg/injection, schedule: Q01DX001 (ip), vehicle: Klucel (hydroxypropylcellulose) (HPC), higher = longer survival): 101 % of control
T/C (endpoint: median survival time, dose: 100.0 mg/kg/injection, schedule: Q01DX001 (ip), vehicle: Klucel (hydroxypropylcellulose) (HPC), higher = longer survival): 104 % of control
T/C (endpoint: median survival time, dose: 200.0 mg/kg/injection, schedule: Q01DX001 (ip), vehicle: Klucel (hydroxypropylcellulose) (HPC), higher = longer survival): 102 % of control
T/C (endpoint: median survival time, dose: 400.0 mg/kg/injection, schedule: Q01DX001 (ip), vehicle: Klucel (hydroxypropylcellulose) (HPC), higher = longer survival): 101 % of control

O=c1[nH]c(=O)n(C2CC(O)C(CO)O2)cc1Br (stereo not given)
T/C (endpoint: mean tumor weight, dose: 50.0 mg/kg/injection, schedule: Q01DX011 (ip), vehicle: carboxymethylcellulose (CMC), higher = larger tumour): 67 % of control
T/C (endpoint: mean tumor weight, dose: 100.0 mg/kg/injection, schedule: Q01DX011 (ip), vehicle: carboxymethylcellulose (CMC), higher = larger tumour): 88 % of control
T/C (endpoint: mean tumor weight, dose: 200.0 mg/kg/injection, schedule: Q01DX011 (ip), vehicle: carboxymethylcellulose (CMC), higher = larger tumour): 41 % of control
T/C (endpoint: mean tumor weight, dose: 400.0 mg/kg/injection, schedule: Q01DX011 (ip), vehicle: carboxymethylcellulose (CMC), higher = larger tumour): 53 % of control

CCC1NC(=O)C(NC(=O)c2ncccc2O)C(C)OC(=O)C(c2ccccc2)NC(=O)C2CC(=O)CCN2C(=O)C(Cc2ccccc2)N(C)C(=O)C2CCCN2C1=O (stereo not given) (tested in a mixture with another compound)
T/C (endpoint: median survival time, dose: 9.4 mg/kg/injection, schedule: Q01DX009 (ip), vehicle: Klucel (hydroxypropylcellulose) (HPC), higher = longer survival): 102 % of control
T/C (endpoint: median survival time, dose: 18.75 mg/kg/injection, schedule: Q01DX009 (ip), vehicle: Klucel (hydroxypropylcellulose) (HPC), higher = longer survival): 87 % of control
T/C (endpoint: median survival time, dose: 37.5 mg/kg/injection, schedule: Q01DX009 (ip), vehicle: Klucel (hydroxypropylcellulose) (HPC), higher = longer survival): 94 % of control

C=C[C@@]1(C)C=C2CC[C@@H]3[C@](C)(CCC[C@@]3(C)C(=O)O)[C@H]2CC1
T/C (endpoint: mean tumor weight, dose: 25.0 mg/kg/injection, schedule: Q01DX011 (ip), vehicle: saline, higher = larger tumour): 95 % of control
T/C (endpoint: mean tumor weight, dose: 50.0 mg/kg/injection, schedule: Q01DX011 (ip), vehicle: saline, higher = larger tumour): 88 % of control
T/C (endpoint: mean tumor weight, dose: 100.0 mg/kg/injection, schedule: Q01DX011 (ip), vehicle: saline, higher = larger tumour): 84 % of control
T/C (endpoint: mean tumor weight, dose: 200.0 mg/kg/injection, schedule: Q01DX011 (ip), vehicle: saline, higher = larger tumour): 95 % of control

CC(=O)[C@H]1CC[C@H]2[C@@H]3CC[C@@H]4CC(=O)CC[C@]4(C)[C@H]3[C@@H]3O[C@@H]3[C@]12C
T/C (endpoint: mean tumor weight, dose: 37.0 mg/kg/injection, schedule: Q01DX011 (ip), vehicle: other, higher = larger tumour): 150 % of control
T/C (endpoint: mean tumor weight, dose: 55.0 mg/kg/injection, schedule: Q01DX011 (ip), vehicle: other, higher = larger tumour): 99 % of control
T/C (endpoint: mean tumor weight, dose: 83.0 mg/kg/injection, schedule: Q01DX011 (ip), vehicle: other, higher = larger tumour): 108 % of control
T/C (endpoint: mean tumor weight, dose: 250.0 mg/kg/injection, schedule: Q01DX011 (ip), vehicle: other, higher = larger tumour): 122 % of control

Nc1nc(-c2ccccc2N=NN2CCCC2)nc2ccccc12
T/C (endpoint: median survival time, dose: 6.25 mg/kg/injection, schedule: Q01DX009 (ip), vehicle: Klucel (hydroxypropylcellulose) (HPC), higher = longer survival): 105 % of control
T/C (endpoint: median survival time, dose: 12.5 mg/kg/injection, schedule: Q01DX009 (ip), vehicle: Klucel (hydroxypropylcellulose) (HPC), higher = longer survival): 97 % of control
T/C (endpoint: median survival time, dose: 25.0 mg/kg/injection, schedule: Q01DX009 (ip), vehicle: Klucel (hydroxypropylcellulose) (HPC), higher = longer survival): 103 % of control
